According to patent US20050171151A1, “Methods of treating hyperlipidemia” (Allergan, Inc., priority 2001, published 2005):
“And” between values parts separate entries of the source, which are not always exact repeats. Equal entries are not always repeated. “Also recorded” adds a separate entry of the source. Where two headings read alike, the source gives them in different places.

Assays:
[1] = cynomolgus monkey, in vivo
Description: Five male cynomologus monkeys were employed in Study PT-99-10. Three of the five monkeys were treated with AGN 194310 at a daily dosage of 1.25 mg/kg (orally) for a period of 25 days. […] Its structure is described herein below. The remaining two were similarly treated with a vehicle to serve as control. Serum samples were collected on days 1, 8, 15, 22 and 25 for triglyceride determination. Serum samples from days 8, 15, 22 and 25 were also assayed for the concentration of AGN 194310.

Stability to light = assay type: physicochemical
[2] = Clinical observation, body weight and food consumption of treated monkeys; assay type: in vivo, cynomolgus monkeys
Excerpt: AGN 194310 is an RAR antagonist or inverse agonist. Its structure is described herein below.

[3] = test system: serum lipids (triglyceride, cholesterol, LDL, HDL); details: for Triglyceride level after treatment: with diet and exercise
serum triglycerides [4] = experiment: Serum triglycerides (STG) in male SJL mice; assay type: in vivo; details: for Serum triglycerides, Day 4 0 hr (2 pm), group mean / Serum triglycerides, Day 3 8 a.m., group mean / Serum triglycerides, Day 4 0 hr (2 pm): 20 mg/kg oral gavage daily; for Serum triglycerides, Day 3 8 a.m., group mean / Serum triglycerides, Day 3 8 a.m.: non-fasting; for Serum triglycerides, Day 3 8 a.m. / Serum triglycerides, Day 4 0 hr (2 pm): individual male SJL mice, 20 mg/kg; for Serum triglycerides, Day 3 8 a.m.: 20 mg/kg oral gavage daily in corn oil; for Effect on non-fasting STG: Day 3, 8 a.m.
Description: Male SJL mice were dosed orally with vehicle, AGN 197116 (RARα antagonist) or AGN 194310 (RAR pan-antagonist) for 4 consecutive days. The structure of AGN 194310 is described herein below. The structure of AGN 197116 is: [drawing 16]
The test compounds were dissolved in corn oil and given at a dosage/volume of 20 mg/5 ml/kg. […]
(§1) On day 4, animals were fasted after dosing, starting at 8 a.m. Following 6 hours of fasting, blood samples were collected prior to intravenous injection of WR-1339 at 100 mg/5 ml/kg. Additional serum samples were collected at 1 and 2 hours after WR-1339 injection. WR-1339 is a detergent which inactivates lipoprotein lipase and thus prevents the removal of triglycerides from circulation. By measuring the increase of STG after WR-1339 administration in fasted animals, one can estimate the hepatic triglyceride (HTG) output during fasting.
(§2) Due to the lack of effect of AGN 197116 at 20 mg/kg, the dose was increased to 100 mg/kg in the same set of mice. STG was determined on day 3 prior to dosing (Day 3, 8 a.m.). […] To ensure that AGN 197116 would be bioavailable, AGN 197116 was dissolved in DMSO and given by intraperitoneal injections, once at 4 p.m. on day 3 and once at 8 a.m. on day 4, at a dosage of 100 mg/kg/injection. Administration of WR-1339 and blood collections on day 4 were similarly conducted as described above.

[5] = test system: hepatic triglyceride output; experiment: Hepatic triglyceride (HTG) output: increase of STG after WR-1339 in fasted male SJL mice; assay type: in vivo; details: for Serum triglycerides, Day 4 post-WR-1339 1 hr (3 p.m.), group mean / Serum triglycerides, Day 4 post-WR-1339 2 hr (4 p.m.), group mean / Serum triglycerides, Day 4 post-WR-1339 1 hr (3 p.m.) / Serum triglycerides, Day 4 post-WR-1339 2 hr (4 p.m.): fasted; for Effect on HTG output after WR-1339 injection: 20 mg/kg orally for 4 days
Description: as §1, §2

serum triglycerides [6] = experiment: Serum triglycerides in cynomolgus monkeys treated orally (Study PT-99-10); assay type: in vivo
Description: Five male cynomologus monkeys were employed in Study PT-99-10. […] Its structure is described herein below. The remaining two were similarly treated with a vehicle to serve as control. Serum samples were collected on days 1, 8, 15, 22 and 25 for triglyceride determination. Serum samples from days 8, 15, 22 and 25 were also assayed for the concentration of AGN 194310.

[7] = group mean, male SJL mice, after 6 hours fasting, before WR-1339
[8] = after 6 hours fasting, before WR-1339
[9] = male SJL mice, 20 mg/kg oral gavage daily, 1 hr after 100 mg/kg tyloxapol IV
[10] = male SJL mice, 20 mg/kg oral gavage daily, 2 hr after 100 mg/kg tyloxapol IV
[11] = individual male SJL mice, 20 mg/kg oral gavage daily, 1 hr after 100 mg/kg tyloxapol IV
[12] = individual male SJL mice, 20 mg/kg oral gavage daily, 2 hr after 100 mg/kg tyloxapol IV

CCc1ccc(C2=CC(C)(C)Sc3ccc(C#Cc4ccc(C(=O)O)cc4)cc32)cc1 [AGN 194310, 4-[[4-(4-ethylphenyl)-2,2-dimethyl-(2H)-thiochromen-6-yl]-ethynyl]-benzoic acid]
Oral absorption [1]: well absorbed
Stability to normal light (Stability to light): relatively stable to normal light
Body weight and rate of food consumption ([2]; 1.25 mg/kg orally daily, throughout the 25 day study): no change in body weight or rate of food consumption
Abnormal clinical signs ([2]; daily dose 1.25 mg/kg orally, 25 days): without any noticeable abnormal clinical signs
Triglyceride level after treatment ([3]; Example 1, person, tablet 20 mg daily, 3 months, initial 440 mg/dL): 280 mg/dL
Triglyceride level after treatment ([3]; Example 2, person, tablet 50 mg twice daily, initial 950 mg/dL): 450 mg/dL
Side effects ([3]; human, in vivo): no side effects
Tolerability ([3]; human, in vivo): tolerates the medication well
Serum triglycerides, Day 4 0 hr (2 pm), group mean (serum triglycerides [4]; [7]): 71.5
Serum triglycerides, Day 3 8 a.m., group mean (serum triglycerides [4]; group mean, male SJL mice): 92.7
Serum triglycerides, Day 3 8 a.m. (serum triglycerides [4]): 71.2 and 105.7 and 67.9 and 113.2 and 134.8 and 76.6 and 63.1 and 84.1 and 95.6 and 115.2
Serum triglycerides, Day 4 0 hr (2 pm) (serum triglycerides [4]; [8]): 76.6 and 76 (2×) and 57.3 and 74.7 and 80.5 and 71.5 and 73.4 and 61.1 and 67.6
Effect on non-fasting STG (serum triglycerides [4]; male SJL mice, 20 mg/kg orally): appeared to lower
Effect on fasting STG (serum triglycerides [4]; male SJL mice, 20 mg/kg orally, Day 4, 2 p.m.): but not fasting STG
Serum triglycerides, Day 4 post-WR-1339 1 hr (3 p.m.), group mean [5, 9]: 266.3
Serum triglycerides, Day 4 post-WR-1339 2 hr (4 p.m.), group mean [5, 10]: 485.6
Serum triglycerides, Day 4 post-WR-1339 1 hr (3 p.m.) [5, 11]: 216.8 and 307.2 and 294.9 and 311.7 and 238.7 and 303.9 and 260 and 252.3 and 210.9
Serum triglycerides, Day 4 post-WR-1339 2 hr (4 p.m.) [5, 12]: 328.5 and 548 and 562.9 and 577.1 and 493.8 and 508 and 550 and 542.9 and 259.1
Effect on HTG output after WR-1339 injection ([5]; male SJL mice): reduction of HTG output
Serum triglycerides, Day 1 (serum triglycerides [6]; individual male cynomolgus monkeys, by gastric intubation daily, Day 1 (baseline)): 48.8 mg/dL and 52.5 mg/dL and 58.5 mg/dL
Serum triglycerides, Day 8 (serum triglycerides [6]; individual male cynomolgus monkeys, by gastric intubation daily, Day 8): 24.3 mg/dL and 21.6 mg/dL and 19.2 mg/dL
Serum triglycerides, Day 15 (serum triglycerides [6]; individual male cynomolgus monkeys, by gastric intubation daily, Day 15): 18.2 mg/dL and 30.7 mg/dL and 29.6 mg/dL
Serum triglycerides, Day 22 (serum triglycerides [6]; individual male cynomolgus monkeys, by gastric intubation daily, Day 22): 30.4 mg/dL and 20.6 mg/dL and 36.5 mg/dL
Serum triglycerides, Day 25 (serum triglycerides [6]; individual male cynomolgus monkeys, by gastric intubation daily, Day 25): 20.3 mg/dL and 23.4 mg/dL and 28.3 mg/dL
Serum triglycerides, Day 1, group mean (serum triglycerides [6]; mean of 3 monkeys, by gastric intubation, Day 1 (baseline)): 53.3 mg/dL
Serum triglycerides, Day 8, group mean (serum triglycerides [6]; mean of 3 monkeys, by gastric intubation, Day 8): 21.7 mg/dL
Serum triglycerides, Day 15, group mean (serum triglycerides [6]; mean of 3 monkeys, by gastric intubation, Day 15): 26.2 mg/dL
Serum triglycerides, Day 22, group mean (serum triglycerides [6]; mean of 3 monkeys, by gastric intubation, Day 22): 29.2 mg/dL
Serum triglycerides, Day 25, group mean (serum triglycerides [6]; mean of 3 monkeys, by gastric intubation, Day 25): 24.0 mg/dL
Effect on serum triglycerides (serum triglycerides [6]; monkeys, daily dose 1.25 mg/kg orally, 1.25 mg/kg): highly significant decrease of serum triglycerides; also recorded: lowers serum triglycerides
Average decrease of serum triglycerides compared to day 1 (baseline) (serum triglycerides [6]; per treated monkey, 1.25 mg/kg orally daily for 25 days, control monkeys increased 48% and 89%, 1.25 mg/kg): 52% and 54% and 51%

Cc1ccc(C2=CCC(C)(C)c3cc(O)c(C(=O)Nc4ccc(C(=O)O)c(F)c4)cc32)cc1 [AGN 197116]
Effect on STG (serum triglycerides [4]; SJL mice, 100 mg/kg orally, Day 3, 8 a.m. prior to dosing): no lowering of STG was observed
Effect on STG (serum triglycerides [4]; SJL mice, 16 hours after a single intraperitoneal 100 mg/kg dose in DMSO (Day 4, 8 a.m.)): clear lowering of STG
Effect on fasting STG (serum triglycerides [4]; SJL mice, intraperitoneal 100 mg/kg/injection, after fasting (Day 4, 2 p.m.)): this effect disappeared after fasting
Serum triglycerides, Day 4 post-WR-1339 0 hr (2 pm), group mean (serum triglycerides [4]; group mean, SJL mice, 100 mg/kg oral then I.P., after 6 hours fasting, before WR-1339): 50
Serum triglycerides, Day 4 0 hr (8 am), group mean (serum triglycerides [4]; group mean, SJL mice, 16 hours after a single 100 mg/kg I.P. dose): 79
Serum triglycerides, Day 3 0 Hour, group mean (serum triglycerides [4]; group mean, SJL mice, Day 1-3 100 mg/kg oral, Day 3 prior to dosing): 118
Serum triglycerides, Day 4 0 hr (2 pm), group mean (serum triglycerides [4]; [7]): 72.4
Serum triglycerides, Day 3 8 a.m., group mean (serum triglycerides [4]; group mean, male SJL mice): 123.0
Serum triglycerides, Day 4 0 hr (8 am) (serum triglycerides [4]; individual SJL mice, 16 hours after a single 100 mg/kg I.P. dose (after Day 1-3 100 mg/kg oral), 100 mg/kg): 58 and 79 and 51 and 114 and 50 and 125
Serum triglycerides, Day 4 post-WR-1339 0 hr (2 pm) (serum triglycerides [4]; individual SJL mice, Day 1-3 100 mg/kg oral, Day 3-4 100 mg/kg I.P., after 6 hours fasting, before WR-1339, 100 mg/kg): 42 mg/dL (2×) and 36 mg/dL and 73 mg/dL and 59 mg/dL and 50 mg/dL
Serum triglycerides, Day 3 0 Hour (serum triglycerides [4]; individual SJL mice, Day 1-3 100 mg/kg oral, Day 3 prior to dosing, 100 mg/kg): 81 and 104 and 103 and 139 and 107 and 171
Serum triglycerides, Day 3 8 a.m. (serum triglycerides [4]): 128.7 and 124 and 150.3 and 110.5 and 118.6 and 124.7 and 112.5 and 106.4 and 131.4
Serum triglycerides, Day 4 0 hr (2 pm) (serum triglycerides [4]; [8]): 63.1 and 91.7 and 43 and 72.1 and 90.8 and 76 and 68.2 and 73.4 (2×)
Effect on non-fasting STG (serum triglycerides [4]; male SJL mice, 20 mg/kg orally): not observed
Effect on HTG output ([5]; SJL mice, intraperitoneal injection 100 mg/kg/injection): reduced
Serum triglycerides, Day 4 post-WR-1339 1 hr (3 p.m.), group mean ([5]; SJL mice, 100 mg/kg oral then I.P., 1 hr after WR-1339): 222
Serum triglycerides, Day 4 post-WR-1339 2 hr (4 p.m.), group mean ([5]; SJL mice, 100 mg/kg oral then I.P., 2 hr after WR-1339): 345
Serum triglycerides, Day 4 post-WR-1339 1 hr (3 p.m.), group mean [5, 9]: 334.2
Serum triglycerides, Day 4 post-WR-1339 2 hr (4 p.m.), group mean [5, 10]: 646.8
Serum triglycerides, Day 4 post-WR-1339 1 hr (3 p.m.) ([5]; individual SJL mice, Day 1-3 100 mg/kg oral, Day 3-4 100 mg/kg I.P., 1 hr after WR-1339, 100 mg/kg): 220 and 195 and 248 and 345 and 126 and 197
Serum triglycerides, Day 4 post-WR-1339 2 hr (4 p.m.) ([5]; individual SJL mice, Day 1-3 100 mg/kg oral, Day 3-4 100 mg/kg I.P., 2 hr after WR-1339, 100 mg/kg): 285 and 272 and 396 and 531 and 200 and 387
Serum triglycerides, Day 4 post-WR-1339 1 hr (3 p.m.) [5, 11]: 360.1 and 380.1 and 464.1 and 241.9 and 331.7 and 329.8 and 262.6 and 311 and 326.5
Serum triglycerides, Day 4 post-WR-1339 2 hr (4 p.m.) [5, 12]: 726.9 and 723.7 and 770.2 and 590 and 575.2 and 700.4 and 462.8 and 659.1 and 612.6
Effect on HTG output after WR-1339 injection ([5]; male SJL mice): not observed
